This assay concerns gonarthrosis induced by partial excision of medial meniscus/abscission of bilateral collateral ligaments. Nature of the assay: Regenerative healing effects on gonarthrosis induced by partial excision of medial meniscus/abscission of bilateral collateral ligaments. It is filed as in vivo, rabbit. The conditions noted are these: 1 μg in microsphere of Example 7-(1), intra-articular two and six weeks after operation; ten weeks after operation; control 18.86 ± 2.03. The protocol:
Japanese White rabbits (male; 10-week-old; 7 rabbits/group) were housed for 16 days at room temperature (23±2° C.) and 55±15% humidity. During the housing period, the rabbits were free to access commercially available food (Oriental Bio Service; LRC4).
Under ether anesthesia, the right knee joint of each rabbit was excised and ½ portion of medial meniscus was isolated with double-edged small straight scissors. The bilateral collateral ligaments were also cut. After the operation, muscle and epidermal tissues were sutured and sterilized. Two weeks from the operation, under ether anesthesia, each rabbit of the test group (7 rabbits/group) was administered intra-articularly the drug-containing microsphere prepared in Example 7-(1), which contains 1 μg of Compound (2). The rabbit of the control group (7 rabbits/group) received the same amount of drug-free microsphere prepared in Control Example 2. […]
After wiping off the excess India Ink, the overhead surface image of the formalin-fixed tibial proximal end was imported into an analyzer, Image Analyzer (IMAGING RESEARCH, MICD imaging analyzer), with a stereomicroscope (OLYMPUS OPTICAL Co., Ltd. model SZX12-2111). […] The gross medial area was also measured and the percentage (%) (the degenerated area rate) of the degenerated medial area in the gross medial area was calculated.

For the compound `CCOc1cc2cc(CO)c(CO)c(-c3ccnc(-n4nc(-c5cccnc5)c5ccccc5c4=O)c3)c2cc1OCC` [Compound (2)], the “Degenerated Area Rate (%)” value was found to be 10.16 ± 1.35%.

(Values after patent US8399466B2, “Composition for regenerative treatment of cartilage disease” (Mitsubishi Tanabe Pharma Corporation, priority 2001, dated 2013).)
